Literature values, collected in patent publication US20050215455A1, “Surfactants in powdered form that can be used in tablets or gelatin capsules; preparation process and compositions containing them” (priority 2004, published 2005).
≈ marks a conversion by molar mass, not a printed value.

With `Cn1c(=O)c2[nH]cnc2n(C)c1=O` [Theophylline] as the molecule, how does the Solubility in water read?
The Solubility in water was 8 µg/mL (≈ 44.4 µM).
